# Assay results reported in US20130041005A1, “PHARMACEUTICAL COMPOSITIONS COMPRISING NEUROPILIN INHIBITORS, AND THEIR USE FOR THE PREVENTION AND/OR TREATMENT OF ANGIOGENIC DISORDERS AND CANCERS” (TRAGEX PHARMA, priority 2011, published 2013).
# “Also recorded” adds a separate entry of the source.
# How the values were obtained:
# MDAMB-231 cells = assay: Adhesion test (crystal violet), MDA-MB-231; type: cell-based, Human; details: MDAMB-231, FIGS. 1A-C
# Experimental: The crystal violet (hexamethyl pararosaniline chloride) is used as biologic colorant. It enters in the living cells, allowing the visualisation of the dark purple adherent living cells on the bottom of the plate.
# After an incubation period of 72 h, the adherent cells were fixed with […] paraformaldehyde
# 3% for 15 min at room temperature. The medium and non-adherent cells were removed, and the cells were washed extensively with […] PBS (+Ca^2+ and +Mg^2+) (Lonza) and then stained with 50 μl of crystal violet 0.04% for 30 min at room temperature. The cells were washed gently 3 times with 100 μl PBS and were permeabilised with 100 μl triton 2% for 15 min. The microplate was stirred to obtain a homogenous solution and absorbance was quantified at 580 nm by Microplate Manager 5.2.
# The percentage of inhibition is calculated as follow: % inhibition=100−[(DOsample/DOcontrol)*100].
# cancer cell lines = assay: wst-1 cytotoxic test, all tested cancer cell lines; type: cell-based, Human; details: breast, colon, pancreas, cervical, prostate or brain cancer or osteosarcoma
# From the text: (§1) Several cancer cell lines were used: breast cancer cells (MDA-MB-231 (ATTCC® Number HTB-26™), MDA-MB-436 (ATTCC® Number HTB-130™), MDA-MB-438, BT-474 (ATTCC® Number HTB-20™)); cervical cancer cells (HeLa (ATTCC® Number CCL-2™)); colon cancer cells (HCT-116 (ATTCC® Number CCL-247™) and HT-29 (ATTCC® Number HTB-38™)); osteosarcoma cells (U2OS (ATTCC® Number HTB-96™)); pancreas cancer cells (MIA PaCa-2 (ATTCC® Number CRL-1420™) and Panc-10.5 (ATTCC® Number CRL-2547™)); prostate cancer cells (PC-3 (ATTCC® Number CRL-1435™) and LNCaP (ATTCC® Number CRL-1740™)); brain cancer cells (U87 glioblastoma (ATTCC® Number HTB-14™) and SH-SYSY neuroblastoma (ATTCC® Number CRL-2266™)). […]
# (§2) After observation of cells under the microscope, old media were removed and the adherent cells washed gently twice with PBS (Phosphate Buffer Saline, —Ca^2+, —Mg^2+, Lonza cat no: 17-512F/12). […] 50 μl of this solution were transferred in 20 μl of isotonic solution and the cells were counted by count cellular (Beckman Coulter). […]
# (§3) The cell proliferation WST-1 assay is a colorimetric assay for the quantification of cell proliferation and viability, based on the enzymatic cleavage of the tetrazolium salt WST-1 added to the culture medium, to a water soluble colored formazan dye, detected by absorbance at 450 nm, by mitochondrial succinate-tetrazolium reductase in viable cells. […]
# MIA PaCa-2 = assay: WST-1 proliferation assay, MIA PaCa-2; type: cell-based; details: Homo sapiens; Pancreas MIA PaCa-2, 72 h; read-out: Anti-proliferative activity IC50 (μM) ± SD
# From the text: as §1, §2, §3
# HUVEC cells = assay: Tube formation assay; type: cell-based; details: HUVEC on collagen, IC50 concentration (FIGS. 1D, 3B)
# Experimental: Collagen type I (1 mg/ml, BD) was mixed with 0.1N NaOH, 0.1% bicarbonate and 10× in medium EBM-2 and kept on ice until placed into the wells. The assay was prepared in 96-well plate format and the bottom layer of collagen was formed by adding 70 μL of the solution per well and allowing subsequent gelation at 37° C. for 30 min. The HUVEC cells were then seeded on collagen at […] cells per well. After monolayer formation (one day), a second layer of collagen 200 μL per well was prepared according to the same protocol and gently placed on top of the cell layer. The compounds of the invention were added to the cells at the adhesion step (concentration corresponding to the Inhibitory Concentration 50 (IC50)). After 24 and 48 h of incubation at 37° C., tube formation was observed and pictures were taken.
smiles,measurement,setting,value
"O=C(NC(=S)Nc1cccc(-c2nc3ccccc3[nH]2)c1)c1ccc2c(c1)OCCO2 [Compound 2, N-[3-(1H-benzimidazol-2-yl)phenyl]-N′-(2,3-dihydro-1,4-benzodioxin-6-ylcarbonyl)thiourea]",inhibition of adhesion of cancer cells in culture,MDAMB-231 cells,inhibited the adhesion
same,cytotoxicity for all the tested cancer cell lines,cancer cell lines,cytotoxic for all the tested cancer cell lines
same,IC50,MIA PaCa-2,1 µM
same,formation of new blood vessels (tube formation),HUVEC cells,inhibited the tube formation; also recorded: effectively inhibited
"Cc1ccc(-c2nc3ccccc3[nH]2)cc1NC(=S)NC(=O)c1ccc2c(c1)OCCO2 [Compound 1, N-[5-(1H-benzimidazol-2-yl)-2-methylphenyl]-N′-(2,3-dihydro-1,4-benzodioxin-6-ylcarbonyl)thiourea]",inhibition of adhesion of cancer cells in culture,MDAMB-231 cells,inhibited the adhesion
same,cytotoxicity for all the tested cancer cell lines,cancer cell lines,cytotoxic for all the tested cancer cell lines
same,IC50,MIA PaCa-2,1 µM
same,formation of new blood vessels (tube formation),HUVEC cells,inhibited the tube formation; also recorded: effectively inhibited
